{"source": "patent US20250025443A1", "about": "“COMPOUNDS AND METHODS FOR TREATING CORONA VIRUSES” (CLEAR CREEK BIO, INC., priority 2021, published 2025)", "note": "pIC50: −log10 of the molar value.", "data": [{"molecular_target": "SARS-CoV-2 Papain-Like Protease (PLpro) (Severe acute respiratory syndrome coronavirus 2 (2019-nCoV) (SARS-CoV-2), UniProt P0DTD1)", "assay": "biochemical", "details": "PLpro enzymatic fluorescence assay; class symbols; read-out: PLpro IC50", "values": [{"molecule": "Cc1ccc(OC[C@@H]2CCN2C)cc1C(=O)NC1(c2cc(N(C)CC(F)(F)F)cc3ncccc23)CC1", "note": "[Compound 781, (S)-2-Methyl-N-(1-(7-(methyl(2,2,2-trifluoroethyl)amino)quinolin-5-yl)cyclopropyl)-5-((1-methylazetidin-2-yl)methoxy)benzamide]", "pIC50": "> 7.00"}, {"molecule": "Cc1ccc(OCC2CCN2C)cc1C(=O)NC1(c2cc(-c3ccc(Cl)s3)cc3ccccc23)CC1", "note": "(stereo not shown) [Compound 514, N-(1-(3-(5-Chlorothiophen-2-yl)naphthalen-1-yl)cyclopropyl)-2-methyl-5-((1-methylazetidin-2-yl)methoxy)benzamide]", "pIC50": "> 7.00"}, {"molecule": "Cc1cc(-c2cc(C3(NC(=O)c4cc(OC[C@@H]5CCN5)ccc4C)CC3)c3cccnc3c2)c(C)o1", "note": "[Compound 641, (S)-5-(Azetidin-2-ylmethoxy)-N-(1-(7-(2,5-dimethylfuran-3-yl)quinolin-5-yl)cyclopropyl)-2-methylbenzamide]", "pIC50": "> 7.00"}, {"molecule": "CC#Cc1cc(C2(NC(=O)c3cc(OC[C@@H]4CCN4C)ccc3C)CC2)c2ccc(C)nc2c1", "note": "[Compound 824, (S)-2-Methyl-N-(1-(2-methyl-7-(prop-1-yn-1-yl)quinolin-5-yl)cyclopropyl)-5-((1-methylazetidin-2-yl)methoxy)benzamide]", "pIC50": "> 7.00"}, {"molecule": "Cc1ccc(OC[C@@H]2CCN2C)cc1C(=O)NC1(c2cc(-c3ccc(F)cc3)cc3ncccc23)CC1", "note": "[Compound 678, (S)—N-(1-(7-(4-Fluorophenyl)quinolin-5-yl)cyclopropyl)-2-methyl-5-((1-methylazetidin-2-yl)methoxy)benzamide]", "pIC50": "> 7.00"}, {"molecule": "Cc1ccc(OC[C@@H]2CCN2)cc1C(=O)NC1(c2cc(-c3cnc(N4CCCCC4)nc3)cc3ncccc23)CC1", "note": "[Compound 688, (S)-5-(Azetidin-2-ylmethoxy)-2-methyl-N-(1-(7-(2-(piperidin-1-yl)pyrimidin-5-yl)quinolin-5-yl)cyclopropyl)benzamide]", "pIC50": "> 7.00"}, {"molecule": "COc1cc(C2(NC(=O)c3cc(OC[C@@H](C)N)ccc3C)CC2)c2ccncc2c1", "note": "[Compound 537, (R)-5-(2-Aminopropoxy)-N-(1-(7-methoxyisoquinolin-5-yl)cyclopropyl)-2-methylbenzamide]", "pIC50": "> 7.00"}, {"molecule": "C=Cc1cc(C2(NC(=O)c3cc(OC[C@H](C)N)ccc3C)CC2)c2cccnc2c1", "note": "[Compound 735, (S)-5-(2-Aminopropoxy)-2-methyl-N-(1-(7-vinylquinolin-5-yl)cyclopropyl)benzamide]", "pIC50": "> 7.00"}, {"molecule": "CCc1cc(C2(NC(=O)c3cc(OC[C@@H]4CCN4)ccc3C)CC2)c2cccnc2c1", "note": "[Compound 677, (S)-5-(Azetidin-2-ylmethoxy)-N-(1-(7-ethylquinolin-5-yl)cyclopropyl)-2-methylbenzamide]", "pIC50": "> 7.00"}, {"molecule": "Cc1ccc(-c2cc(C3(NC(=O)c4cc(OC[C@@H]5CCN5C)ccc4C)CC3)c3cccnc3c2)o1", "note": "[Compound 654, (S)-2-Methyl-5-((1-methylazetidin-2-yl)methoxy)-N-(1-(7-(5-methylfuran-2-yl)quinolin-5-yl)cyclopropyl)benzamide]", "pIC50": "> 7.00"}, {"molecule": "C=Cc1cc2c(c(C3(NC(=O)c4cc(OC[C@@H]5CCN5C)ccc4C)CC3)c1)CCCN2C", "note": "[Compound 796, (S)-2-Methyl-N-(1-(1-methyl-7-vinyl-1,2,3,4-tetrahydroquinolin-5-yl)cyclopropyl)-5-((1-methylazetidin-2-yl)methoxy)benzamide]", "pIC50": "> 7.00"}, {"molecule": "Cc1ccc2c(C3(NC(=O)c4cc(OC[C@@H]5CCN5C)ccc4C)CC3)cc(NS(C)(=O)=O)cc2n1", "note": "[Compound 825, (S)-2-Methyl-N-(1-(2-methyl-7-(methylsulfonamido)quinolin-5-yl)cyclopropyl)-5-((1-methylazetidin-2-yl)methoxy)benzamide]", "pIC50": "> 7.00"}]}, {"molecular_target": "SARS-CoV-2 Papain-Like Protease (PLpro) (Severe acute respiratory syndrome coronavirus 2 (2019-nCoV) (SARS-CoV-2), UniProt P0DTD1)", "assay": "biochemical", "details": "SARS-CoV-2 PLpro enzymatic fluorescence assay; read-out: PLpro IC50", "values": [{"molecule": "Cc1cc2nc[nH]c2cc1C(=O)N[C@H](C)c1cccc2ccccc12", "note": "[Compound 102, (R)-5-Methyl-N-(1-(naphthalen-1-yl)ethyl)-1H-benzo[d]imidazole-6-carboxamide]", "pIC50": "5.30 to 6.00"}, {"molecule": "CNCCOc1ccc(C)c(C(=O)NC2(c3cccc4ccccc34)COC2)c1", "note": "[Compound 451, 2-Methyl-5-(2-(methylamino)ethoxy)-N-(3-(naphthalen-1-yl)oxetan-3-yl)benzamide]", "pIC50": "> 7.00"}, {"molecule": "Cc1ccc(OCCN)cc1C(=O)NC1(c2cccc3ccccc23)CC1", "note": "[Compound 215, 5-(2-Aminoethoxy)-2-methyl-N-(1-(naphthalen-1-yl)cyclopropyl)benzamide]", "pIC50": "> 7.00"}, {"molecule": "Cc1ccc(OC2CN(Cc3ccccc3)C(C)(C)C2)cc1C(=O)NC1(c2cccc3ccccc23)CC1", "note": "(stereo not shown) [Compound 491, 5-((1-benzyl-5,5-dimethylpyrrolidin-3-yl)oxy)-2-methyl-N-(1-(naphthalen-1-yl)cyclopropyl)benzamide]", "pIC50": "6.00 to 7.00"}, {"molecule": "Cc1ccc(OCCNCCO)cc1C(=O)NC1(c2cccc3ccccc23)CC1", "note": "[Compound 359, 5-(2-((2-Hydroxyethyl)amino)ethoxy)-2-methyl-N-(1-(naphthalen-1-yl)cyclopropyl)benzamide]", "pIC50": "> 7.00"}, {"molecule": "C=Cc1cc(C2(NC(=O)c3cc(OC[C@@H]4CCCN4)ccc3C)CC2)c2cccnc2c1", "note": "[Compound 713, (S)-2-Methyl-5-(pyrrolidin-2-ylmethoxy)-N-(1-(7-vinylquinolin-5-yl)cyclopropyl)benzamide]", "pIC50": "> 7.00"}, {"molecule": "COc1cc(C2(NC(=O)c3cc(Oc4ccncc4)ccc3C)CC2)c2cccnc2c1", "note": "[Compound 584, N-(1-(7-Methoxyquinolin-5-yl)cyclopropyl)-2-methyl-5-(pyridin-4-yloxy)benzamide]", "pIC50": "6.00 to 7.00"}, {"molecule": "CNCCOc1ccc(C)c(C(=O)NC2(c3cccc4ccccc34)CNC2)c1", "note": "[Compound 453, 2-Methyl-5-(2-(methylamino)ethoxy)-N-(3-(naphthalen-1-yl)azetidin-3-yl)benzamide]", "pIC50": "< 5.30"}, {"molecule": "COc1cc(C2(NC(=O)c3cc(OC[C@@H]4C[C@@H](F)CN4C)ccc3C)CC2)c2ccccc2c1", "note": "[Compound 489, 5-(((2S,4R)-4-Fluoro-1-methylpyrrolidin-2-yl)methoxy)-N-(1-(3-methoxynaphthalen-1-yl)cyclopropyl)-2-methylbenzamide]", "pIC50": "> 7.00"}, {"molecule": "Cc1ccc(OC[C@@H]2CCN2C)cc1C(=O)NC1(c2cc(-c3cccs3)cc3ncccc23)CC1", "note": "[Compound 551, (S)-2-Methyl-5-((1-methylazetidin-2-yl)methoxy)-N-(1-(7-(thiophen-2-yl)quinolin-5-yl)cyclopropyl)benzamide]", "pIC50": "> 7.00"}, {"molecule": "CCCOc1cc(C2(NC(=O)c3cc(OCC4CCN4C)ccc3C)CC2)c2ccccc2c1", "note": "(stereo not shown) [Compound 474, 2-Methyl-5-((1-methylazetidin-2-yl)methoxy)-N-(1-(3-propoxynaphthalen-1-yl)cyclopropyl)benzamide]", "pIC50": "> 7.00"}, {"molecule": "Cc1cc2cc(CN)oc2cc1C(=O)NC1(c2cccc3ccccc23)CC1", "note": "[Compound 236]", "pIC50": "6.00 to 7.00"}, {"molecule": "Cc1cc2cc(CN(C)C)oc2cc1C(=O)NC1(c2cccc3ccccc23)CC1", "note": "[Compound 198, 2-((Dimethylamino)methyl)-5-methyl-N-(1-(naphthalen-1-yl)cyclopropyl)benzofuran-6-carboxamide]", "pIC50": "6.00 to 7.00"}, {"molecule": "Cc1ccc(OCCN(C)C)cc1C(=O)NC1(c2cccc3ccccc23)CC1", "note": "[Compound 214, 5-(2-(Dimethylamino)ethoxy)-2-methyl-N-(1-(naphthalen-1-yl)cyclopropyl)benzamide]", "pIC50": "> 7.00"}, {"molecule": "Cc1ccc(OCCN(C)C)cc1C(=O)NC1(c2csc3ccccc23)CC1", "note": "[Compound 346, N-(1-(Benzo[b]thiophen-3-yl)cyclopropyl)-5-(2-(dimethylamino)ethoxy)-2-methylbenzamide]", "pIC50": "6.00 to 7.00"}, {"molecule": "Cc1ccc(OCCN(C)C)cc1C(=O)NC1(c2cccc3cnccc23)CC1", "note": "[Compound 299, 5-(2-(Dimethylamino)ethoxy)-N-(1-(isoquinolin-5-yl)cyclopropyl)-2-methylbenzamide]", "pIC50": "> 7.00"}, {"molecule": "Cc1cc2cc(CN)[nH]c2cc1C(=O)NC1(c2cccc3ccccc23)CC1", "note": "[Compound 170, 2-(Aminomethyl)-5-methyl-N-(1-(naphthalen-1-yl)cyclopropyl)-1H-indole-6-carboxamide]", "pIC50": "> 7.00"}, {"molecule": "Cc1ccc(OCCNS(C)(=O)=O)cc1C(=O)NC1(c2cccc3ccccc23)CC1", "note": "[Compound 424, 2-Methyl-5-(2-(methylsulfonamido)ethoxy)-N-(1-(naphthalen-1-yl)cyclopropyl)benzamide]", "pIC50": "6.00 to 7.00"}, {"molecule": "Cc1ccc(CCC2CCN2)cc1C(=O)NC1(c2cccc3ccccc23)CC1", "note": "(stereo not shown) [Compound 449, 5-(2-(Azetidin-2-yl)ethyl)-2-methyl-N-(1-(naphthalen-1-yl)cyclopropyl)benzamide]", "pIC50": "> 7.00"}, {"molecule": "Cc1cc2[nH]c(=O)[nH]c2cc1C(=O)NC1(c2cccc3ccccc23)CC1", "note": "[Compound 238, 6-Methyl-N-(1-(naphthalen-1-yl)cyclopropyl)-2-oxo-2,3-dihydro-1H-benzo[d]imidazole-5-carboxamide]", "pIC50": "6.00 to 7.00"}, {"molecule": "CNCCOc1ccc(C)c(C(=O)NC2(c3cc(OC)cc4ccccc34)CC2)c1", "note": "[Compound 347, N-(1-(3-Methoxynaphthalen-1-yl)cyclopropyl)-2-methyl-5-(2-(methylamino)ethoxy)benzamide]", "pIC50": "> 7.00"}, {"molecule": "Cc1cc2ccn(CC3CNC3)c2cc1C(=O)NC1(c2cccc3ccccc23)CC1", "note": "[Compound 239, 1-(Azetidin-3-ylmethyl)-5-methyl-N-(1-(naphthalen-1-yl)cyclopropyl)-1H-indole-6-carboxamide]", "pIC50": "> 7.00"}, {"molecule": "Cc1ccc(OC[C@@H]2CCN2C)cc1C(=O)NC1(c2cc(N(C)C)nc3cc(F)ccc23)CC1", "note": "[Compound 611, (S)-N-(1-(2-(Dimethylamino)-7-fluoroquinolin-4-yl)cyclopropyl)-2-methyl-5-((1-methylazetidin-2-yl)methoxy)benzamide]", "pIC50": "> 7.00"}, {"molecule": "C=Cc1cc(C2(NC(=O)c3cc(O[C@@H](C)[C@@H]4CCN4C)ccc3C)CC2)c2cccnc2c1", "note": "(relative stereo) [Compound 757, 2-Methyl-5-((S)-1-((S)-1-methylazetidin-2-yl)ethoxy)-N-(1-(7-vinylquinolin-5-yl)cyclopropyl)benzamide]", "pIC50": "> 7.00"}, {"molecule": "Cc1ccc(OCCN(C)C)cc1C(=O)NC1(c2cccc3ncccc23)CC1", "note": "[Compound 301, 5-(2-(Dimethylamino)ethoxy)-2-methyl-N-(1-(quinolin-5-yl)cyclopropyl)benzamide]", "pIC50": "> 7.00"}]}]}
